Patent US20020128438A1, “DNA cassette for the production of secretable recombinant trimeric TRAIL proteins, tetracycline/ doxycycline-inducible adeno-associated virus vector, their combination and use in gene therapy” (priority 2000, published 2002)
*1 amine or outer side, *2 acyl side, *3 side chain or, on linkers, in order; H or OH if unused. Where a SMILES comes first, the peptide text is derived from it. Bridges are numbered along the chain shown (N, C = ends). Roman numbers before positions name the chains, in order. [ ]: non-standard residue; d: D form. Actinocin(9to1) = Cc1c2oc3c(C)ccc(C(=O)[*:1])c3nc-2c(C(=O)[*:2])c(N)c1=O; NMeV = CN[C@H](C(=O)O)C(C)C; Sar = CNCC(=O)O

Columns and labels:
[1] = tested on: various cancer cell lines
mice = details: systemic delivery; cited from earlier work
monkey = details: cited from earlier work

Compound	concentration at which enhancing activity of ActD was obtained ([1]; enhancement of TRAIL-induced apoptosis) [ng/mL]	effect of ActD on TRAIL-induced apoptosis ([1]; various cancer cell lines)	cytotoxicity in mice (mice)	cytotoxicity in monkey (monkey)
Cc1c2oc3c(C)ccc(C(=O)N[C@@H]4C(=O)N[C@H](C(C)C)C(=O)N5CCC[C@H]5C(=O)N(C)CC(=O)N(C)[C@@H](C(C)C)C(=O)O[C@@H]4C)c3nc-2c(C(=O)N[C@@H]2C(=O)N[C@H](C(C)C)C(=O)N3CCC[C@H]3C(=O)N(C)CC(=O)N(C)[C@@H](C(C)C)C(=O)O[C@@H]2C)c(N)c1=O [ActD, Actinomycin D] (I: T[dV]P[Sar][NMeV] / II: T[dV]P[Sar][NMeV]; ester I:1-I:C, II:1-II:C; linker I:N-II:N via Actinocin(9to1))	100	greatly enhanced		
TRAIL: TNF family member, type II transmembrane apoptosis-inducing ligand			no detectable cytotoxicity	no detectable cytotoxicity
